Test results reported in US11318167B2, “Isolation of fusion-competent myoblasts and therapeutic applications thereof related to muscular dystrophy” (THE JOHNS HOPKINS UNIVERSITY, priority 2015, dated 2022).

Assays:
[1] = system: canonical WNT signaling pathway; assay: β-catenin translocation into the nucleus (canonical WNT signaling); type: cell-based, human
Excerpt: The present invention was created through a number of discoveries. First, to harness the potential of hPSCs, a protocol to direct hPSCs into the skeletal muscle lineage was developed. As the somite is an intermediate stage between hPSCs and myogenic progenitor cells (Bentzinger et al, 2012; Dequeant and Pourquie, 2008) (FIG. 6A), a MESOGENIN1::eGFP reporter human embryonic stem cell (hESC) line was generated with the CRISPR/Cas9 system (Mali et al, 2013) (FIG. 6B-6D), because MESOGENIN1 is a genetic marker for the pre-somite mesoderm fate (Fior et al., 2012).

[2] = system: MESOGENIN1::eGFP reporter human embryonic stem cell (hESC) line; assay: MESOGENIN1::eGFP reporter hESC line, pre-somite mesoderm induction (day 4); type: cell-based
Excerpt: The present invention was created through a number of discoveries. First, to harness the potential of hPSCs, a protocol to direct hPSCs into the skeletal muscle lineage was developed. As the somite is an intermediate stage between hPSCs and myogenic progenitor cells (Bentzinger et al, 2012; Dequeant and Pourquie, 2008) (FIG. 6A), a MESOGENIN1::eGFP reporter human embryonic stem cell (hESC) line was generated with the CRISPR/Cas9 system (Mali et al, 2013) (FIG. 6B-6D), because MESOGENIN1 is a genetic marker for the pre-somite mesoderm fate (Fior et al., 2012). […] For myogenic differentiation, hESCs/hiPSCs were rendered to single cells using Accutase® solution, and plated on gelatin for 10 minutes to remove MEFs. Non-adherent cells were collected and plated on Geltrex™ treated dishes, at a density of 1.5×10^5 cells per well of a 24-well plate, in the presence of MEF-conditioned N2 media containing 10 ng/ml of FGF-2 and 10 μM of Y-27632 (Cayman Chemical Co.) (day 0). The N2 medium, described in detail, contains DMEM/F12 powder, glucose, sodium bicarbonate, insulin, putrescine, progesterone, sodium selenite, and transferrin. From the next day (day 1), media was changed at every other day. BIO (30 nM-250 nM), lithium chloride (20 μM-20 mM), Kenpallone (1 μM-10 μM), SB 216763 (1 μM-10 μM), WNT-1 (10 ng/ml-100 ng/ml), WNT-3A (10 ng/ml-100 ng/ml), WNT-7A (10 ng/ml-100 ng/ml), SBE13 hydrochloride (0.1 nM-10 μM), and OTSSP167 hydrochloride (0.1 nM-10 nM) were tested during day 1 to day 4, as well as during day 4 to day 8. Final concentrations of CHIR99021 and DAPT treatment are 3 μM and 10 μM, respectively.

[3] = system: control hiPSC-derived myoblasts; assay: Effect of DMD-myoblast conditioned media / BMP4 on control hiPSC-derived myoblasts; type: cell-based, human; settings: BMP4 four concentrations, 7.5 μg/ml to 25 μg/ml; compared with inhibitive effect of DMD-myoblast CM
Method: FIG. 10A-10D is related to FIG. 5 and illustrates the effect of BMP4 on myoblasts and its pharmacological rescue. (A) Increased level of BMP4 expression in DMD-myoblasts than control myoblasts. (B-C) Inhibitive effect of conditioned media (CM, harvested after 24 hr incubation) from DMD-myoblasts on fusion index (B), and MYOG, and MYOD1 expression (C) of control hiPSC-derived myoblasts. […] (D) The decreased fusion index in DMD-CM-treated myoblasts was rescued by ‘dual SMAD inhibition’ compounds. (*, P≤0.05; ***, P≤0.001; ****, P≤0.0001, One-way ANOVA followed by Newman-Keuls test). n=3-5. All values represent means and s.d.
To find pharmacological rescue of the in vitro phenotypes, aberrant BMP and TGFβ signaling indicated by increased nuclear localization of pSMAD proteins in DMD-myoblasts (FIG. 3C-3D) was studied. Increased levels of BMP4 in the conditioned media (CM) of DMD-myoblasts (FIG. 10A) was detected. […] The effect of CM of DMD-myoblasts was reproduced by treatment with BMP4 protein in the culture media, which was reversed by treatment with ‘dual-SMAD’ inhibition compounds (FIG. 10D) (LDN+SB: LDN193189 and SB431542).

Cc1c[nH]c(-c2cnc(NCCNc3ccc(C#N)cn3)nc2-c2ccc(Cl)cc2Cl)n1.Cl [CHIR99021]
β-catenin translocation into the nucleus [1]: β-catenin translocation into the nucleus | expression of MESOGENIN1::eGFP (cells out of total cells in a dish) ([2]; brief treatment 4 days after day 0, read at day 4, final concentration 3 μM): 80.8±11.3% | expression of TBX6 (positive cells) ([2]; brief treatment 4 days, read at day 4): 67.4±10.4% | expression of PAX3 ([2]; brief treatment 4 days, read at day 4, dose-dependent manner): significantly increased expression

B1: BMP4: BMP4 protein added to the culture media (protein, UniProt P12644 293-408, looked up)
Bone morphogenetic protein 4: SPKHHSQRARKKNKNCRRHSLYVDFSDVGWNDWIVAPPGYQAFYCHGDCPFPLADHLNSTNHAIVQTLVNSVNSSIPKACCVPTELSAISMLYLDEYDKVVLKNYQEMVVEGCGCR
MYOG and MYOD1 expression of control hiPSC-derived myoblasts [3]: recapitulated the effect of CM of DMD-myoblasts | fusion index of control hiPSC-derived myoblasts [3]: recapitulated the effect of CM of DMD-myoblasts
